In PubChem BioAssay (NCI) one finds GI50 and TGI data, which are given here for twelve compounds.

Among the test systems are KM20L2 colon; SNB-78 CNS; UO-31 renal; OVCAR-5 ovarian; OVCAR-4 ovarian; CAKI-1 renal; HCT-116 colon; SK-OV-3 ovarian; A549 NSCLC.
What all share (test): NCI-60 cell line screen, 48 h

“And” between values parts separate entries of the source, which are not always exact repeats. Identical values can stand only once.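 Assay format: 96-well plates, 48-hour exposure. Here, GI50 denotes the concentration required for 50% inhibition of growth. TGI denotes the concentration required for complete inhibition of growth.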

Turning to `OCC(O)CC[CH2][Sn]([Br])([c]1ccccc1)[c]1ccccc1` (stereo not given), the GI50 in the experiment with KM20L2 colon, in the experiment with SNB-78 CNS, in the experiment on UO-31 renal, in the experiment on OVCAR-5 ovarian, in the experiment with OVCAR-4 ovarian and in the experiment with CAKI-1 renal was above 100 µM throughout. For the same compound, the GI50 in the experiment on HCT-116 colon, in the experiment on SK-OV-3 ovarian and in the experiment with A549 NSCLC was above 100 µM throughout. Further, the TGI in the experiment on KM20L2 colon, with SNB-78 CNS, in the experiment with UO-31 renal, in the experiment on OVCAR-5 ovarian, with OVCAR-4 ovarian and in the experiment on CAKI-1 renal was above 100 µM each time. Further, the TGI in the experiment with HCT-116 colon, in the experiment with SK-OV-3 ovarian and in the experiment with A549 NSCLC was above 100 µM throughout.
With `O=C(O)CNS(=O)(=O)c1ccc(NCc2ccccc2)cc1`, the TGI in the experiment with KM20L2 colon, with SNB-78 CNS, with UO-31 renal, in the experiment on OVCAR-5 ovarian, in the experiment with OVCAR-4 ovarian and in the experiment with CAKI-1 renal was above 100 µM each time. The TGI with HCT-116 colon, in the experiment on SK-OV-3 ovarian and with A549 NSCLC was above 100 µM each time.
On to `O=C(/N=N/C(=O)OCc1ccccc1)OCc1ccccc1`, for which the TGI with KM20L2 colon, in the experiment with SNB-78 CNS, in the experiment on UO-31 renal, in the experiment on OVCAR-5 ovarian, in the experiment on OVCAR-4 ovarian and with CAKI-1 renal was above 100 µM throughout. In addition, the TGI with HCT-116 colon, with SK-OV-3 ovarian and with A549 NSCLC was above 100 µM throughout.
For `[Cl-].[Dy+3].[O-]/N=C(\c1ccccc1)c1ccccn1.[O-]/N=C(\c1ccccc1)c1ccccn1.[O-]/N=C(\c1ccccc1)c1ccccn1`, the GI50 in the experiment with KM20L2 colon is 42 µM; with UO-31 renal it was 25.3 µM; with OVCAR-5 ovarian, 42.4 µM; in the experiment on OVCAR-4 ovarian, 44.3 µM; with CAKI-1 renal, 31 µM; in the experiment with HCT-116 colon, 49.8 µM. Moreover, the GI50 in the experiment on SK-OV-3 ovarian was 33.9 µM; in the experiment on A549 NSCLC it was 32.2 µM. The TGI in the experiment on KM20L2 colon is above 100 µM; in the experiment with UO-31 renal, 65.3 µM; in the experiment with OVCAR-5 ovarian it was above 100 µM; in the experiment with OVCAR-4 ovarian, above 100 µM; in the experiment on CAKI-1 renal, above 100 µM; in the experiment on HCT-116 colon, above 100 µM. For the same compound, the TGI with SK-OV-3 ovarian and with A549 NSCLC was above 100 µM each time.
Take `CC(=O)CNC(=O)OC(C)(C)C`: the TGI with KM20L2 colon, with SNB-78 CNS, in the experiment with UO-31 renal, in the experiment with OVCAR-5 ovarian, in the experiment on OVCAR-4 ovarian and in the experiment with CAKI-1 renal was above 100 µM in each case. In addition, the TGI in the experiment on HCT-116 colon, in the experiment on SK-OV-3 ovarian and with A549 NSCLC was above 100 µM each time.
Turning to `CCC[CH2][Sn]1([CH2]CCC)[O]Cc2nc(C)ccc2[O]1`, the GI50 is 10.9 µM in the experiment with KM20L2 colon; 2.38 µM with SNB-78 CNS; 13.3 µM in the experiment with UO-31 renal; 12.3 µM with OVCAR-5 ovarian; 3.95 µM with OVCAR-4 ovarian; 2.36 µM in the experiment on CAKI-1 renal. The GI50 was 12.1 µM with HCT-116 colon, 15.8 µM with SK-OV-3 ovarian and 19 µM in the experiment with A549 NSCLC. The TGI in the experiment with KM20L2 colon came to 23.6 µM; with SNB-78 CNS, 6.39 µM; in the experiment on UO-31 renal, 26.1 µM; with OVCAR-5 ovarian, 24.8 µM; in the experiment on OVCAR-4 ovarian, 17.6 µM; in the experiment with CAKI-1 renal, 9.03 µM. For the same compound, the results for the TGI with HCT-116 colon, in the experiment on SK-OV-3 ovarian and with A549 NSCLC were 24.5 µM, 29.7 µM and 33.1 µM, respectively.
On to `NC(=O)C(=O)N/N=C(\CC1(O)C(=O)Nc2ccccc21)c1ccc2ccccc2c1` (stereo not given), for which the TGI is above 100 µM in the experiment on SNB-78 CNS; above 100 µM with UO-31 renal; above 100 µM with OVCAR-5 ovarian; above 100 µM in the experiment on OVCAR-4 ovarian; above 100 µM in the experiment on CAKI-1 renal; 21.2 µM in the experiment on HCT-116 colon. The TGI in the experiment on SK-OV-3 ovarian is above 100 µM; with A549 NSCLC, 43.9 µM.
For `CCC[CH2][Sn]([CH2]CCC)([O]C(=O)c1cccnc1SC)[O]C(=O)c1cccnc1SC`, the GI50 in the experiment on KM20L2 colon was 1.7 µM; in the experiment with SNB-78 CNS it was 0.0893 µM; with UO-31 renal, 1.36 µM; in the experiment with OVCAR-5 ovarian it was 1.76 µM; in the experiment with OVCAR-4 ovarian, 1.62 µM; in the experiment with HCT-116 colon it was 1.12 µM. In addition, the GI50 is 2.36 µM in the experiment with SK-OV-3 ovarian and 6.7 µM with A549 NSCLC. In addition, the TGI in the experiment on KM20L2 colon is 3.51 µM; in the experiment on SNB-78 CNS, 1.52 µM; in the experiment on UO-31 renal it was 2.66 µM; in the experiment on OVCAR-5 ovarian it was 3.17 µM; in the experiment on OVCAR-4 ovarian it was 3.06 µM; in the experiment with HCT-116 colon it was 2.32 µM. Also, the results for the TGI in the experiment on SK-OV-3 ovarian and in the experiment with A549 NSCLC were 5.83 µM and 20.6 µM, respectively.
On to `COc1ccc(/C=C/CN(C)CCc2ccccc2)cc1OC`, for which the TGI in the experiment on KM20L2 colon, in the experiment with SNB-78 CNS, in the experiment with UO-31 renal, with OVCAR-5 ovarian, with HCT-116 colon and in the experiment on A549 NSCLC was above 100 µM throughout.
With `O=C1C2c3[nH]c4ccccc4c3C3CCCCCCC3C2C(=O)N1c1ccccc1` (stereo not given), the TGI with SNB-78 CNS came to 32.4 µM; in the experiment on OVCAR-4 ovarian it was 15.4 µM; with SK-OV-3 ovarian, 6.37 µM; with A549 NSCLC, 24.9 µM.
Regarding `CCc1ccc(/C=C\c2cc(OC)c(OC)c(OC)c2)cc1`, the GI50 with KM20L2 colon was 0.0164 µM; in the experiment with SNB-78 CNS it was 0.0224 µM; with UO-31 renal it was 0.0512 µM; in the experiment with OVCAR-5 ovarian, 16.7 µM; with CAKI-1 renal, 1.02 µM; with HCT-116 colon, 0.0187 µM. For the same compound, the TGI in the experiment with KM20L2 colon was 0.125 µM and 0.032 µM; in the experiment with SNB-78 CNS it was above 100 µM; in the experiment on UO-31 renal, 81.3 µM; in the experiment with OVCAR-5 ovarian it was above 100 µM; in the experiment on OVCAR-4 ovarian it was above 100 µM; in the experiment with CAKI-1 renal it was above 100 µM. Moreover, the TGI with HCT-116 colon was 0.464 µM and 1.18 µM; in the experiment with A549 NSCLC, 53.1 µM.
Turning to `CC1=NN(C(=O)Nc2ccccc2)C(=O)C2CCC(=O)N12` (stereo not given), the TGI in the experiment on KM20L2 colon, in the experiment on SNB-78 CNS, in the experiment on UO-31 renal, in the experiment on OVCAR-4 ovarian, in the experiment on CAKI-1 renal and in the experiment on HCT-116 colon was above 100 µM throughout. Further, the TGI in the experiment on SK-OV-3 ovarian and in the experiment on A549 NSCLC was above 100 µM each time.
